Measured values from patent US20240408073A1, “METHODS FOR TREATING A TRAUMA PATIENT” (Beth Israel Deaconess Medical Center, Inc., priority 2021, published 2024).

Tests used:
PMN [1] = test: PMN CTX (chemotaxis) transwell assay; format: cell-based, human
Procedure: Human PMN were isolated from freshly withdrawn peripheral blood of healthy volunteers, as described previously. In brief, heparinized whole blood (10 U/ml) was centrifuged at 200×g for 10 min. The buffy coat and RBC were layered onto 1-Step Polymorphs (AN221725, Accurate Chemical & Scientific Corp, Carle Place, NY, USA), followed by centrifugation at 500×g for 30 min. The PMN layer was collected and diluted with an equal volume of 0.45% NaCl to restore osmolarity for 5 min at room temperature. The suspensions were then washed in RPMI 1640 and centrifuged at 200×g for 10 min. RBC in pellet were lysed with ice-cold 0.2% NaCl for 20 sec and the same volume of 1.6% NaCl was applied to end lysis. Cells were centrifuged again at 200×g for 10 min to collect PMN. PMN were resuspended in physiological solutions depending on the next functional study.
CTX assay PMN CTX was studied in […]. 1×10^5 PMN in 75 μL of RPMI with 2% heat-inactivated FBS were applied to the upper chamber and 150 μL of the same media containing indicated chemoattractants were applied to the lower chamber. mtDNA application was done at RT, rotating for 15 min. […] Cells were incubated (37° C., 5% CO2) for 60 min. PMN were then collected from the lower chambers, centrifuged (500×g, 5 min, RT) and re-suspended in 200 μL of cell lysis solution (×1/20) with CyQUANT GR dye (×1/400) in water for 15 min at RT (C7026, Thermo Fisher Scientific). PMN numbers were evaluated in 96-well plates using 480 nm excitation and 520 nm emission with known numbers of PMN for standard curve.

cortactin = test: Western blot of acetylated cortactin in PMN; format: cell-based, human; details: PAR in conjunction with mtDNA; FIG. 3H
Procedure: Briefly, PMN samples were dissolved in Pierce RIPA lysis buffer (25 mM Tris HCl pH 7.6, 150 mM NaCl, 1% NP-40, 1% sodium deoxycholate, 0.1% SDS) (Thermo Fisher Scientific, Waltham, MA, USA) containing Halt Protease & Phosphatase Inhibitor Cocktail (Thermo Fisher Scientific) for 20 min on ice, followed by centrifugation at […] for 20 min at 4° C. Then, the supernatant was collected, concentration was measured using a Pierce BCA Protein Assay Kit (Thermo Fisher Scientific). After mixing and boiling (95° C., 10 min) protein lysate with appropriate amount of 6×Laemmli SDS-sample buffer (J61337, Alfa Aesar, Tewksbury, MA, USA) according to the protein concentration, 40 μg of protein lysates were separated by SDS/PAGE and transferred to nitrocellulose membranes contained in an iBlot Transfer Stack kit (IB301002, Thermo Fisher Scientific). […] After being incubated with their appropriate secondary antibodies conjugated with horseradish peroxidase (HRP) the following day, the immunoblot signals were detected by application of the Amersham ECL Prime Western Blotting Detection Reagent kit (Cytiva, Marlborough, MA, USA) in a ChemiDoc Imaging System (Bio-Rad, Hercules, CA, USA). Quantification of blots were performed using Image J v.1.53i (National Institute of Health, Bethesda, MD, USA).

human PMN [2] = test: Bacterial phagocytosis assay by flow cytometry; format: cell-based; details: drug 30 min, then mtDNA 15 min; FIG. 4A
human PMN [3] = test: Bacterial phagocytosis assay by colony-forming unit (CFU) count; format: cell-based; details: drug 30 min, then mtDNA 15 min; for PMN uptake of Sa in co-culture suppressed by mtDNA (PMN lysis/agar plate): FIG. 4B; for Sa killing / clearance of Sa from co-culture media suppressed by mtDNA: FIG. 4C
Procedure: Before the CFU count of bacteria, Staphylococcus aureus (Sa) were opsonized with autologous serum from the PMN donor. OD600=0.1 were determined as 10^8 CFU/mL according to previous measurements. […] Then, Sa were incubated with PMN at 1:1 ratio in 1 mL 0.9% NaCl supplemented with human serum for 30 min rotating. […] The supernatant was collected separately, centrifuged at 5000×g for 10 min to pellet bacteria. The bacteria were applied on agar plates and after 18 hrs the bacterial colonies were counted.

human PMN [4] = test: Actin polymerization assay by rhodamine phalloidin staining; format: cell-based; details: FIG. 5
Procedure: Actin polymerization was studied using an F-Actin Visualization Biochem Kit (Cytoskeleton, Inc., Denver, CO, USA) according to the manufacturer's instructions. Briefly, PMN were applied to glass slides (Thermo Fisher Scientific) pre-coated with 0.1% poly-L-lysine solution ([…], MilliporeSigma) in H2O. Then 200 μL of Fixative solution was added to the slides and incubated for 10 min at RT. After washing with 200 μL of Wash buffer for 30 sec at RT, 200 μL of Permeabilization Buffer was added to the slides and incubated for 5 min at RT. Then, the cells were stained with rhodamine phalloidin for 30 min at RT in dark. The slides were then washed with Wash buffer and Hoechst 33342 (1:1,000 in PBS) was applied to stain nucleus. Followed by 3 times of washing, 20 μL of Mounting medium was added to the center of each slide and a coverslip was put on. Clear nail polish was used to seal coverslips. The actin filaments were observed using AxioImager Epifluorescence Microscope (Zeiss, Jena, Germany) at excitation 535 nm and emission 585 nm.

Staphylococcus aureus = test: Mouse trauma (laparotomy + liver crush) plus intratracheal Staphylococcus aureus lung infection; format: in vivo, CD-1 mice; details: PAR 20 mg/kg
Procedure: Following 48 hr acclimatization, 8-9 week-old male CD-1 mice (body weight 30-32 g) underwent laparotomy followed by crushing of the left lobe of liver 8 times using a sterile forceps. […] Mice were sacrificed 18 h later and bronchoalveolar lavage (BAL) fluid (BALF) was collected by tracheal irrigation with 1 mL of PBS. The collected BALF was centrifuged; the pellet was diluted to count the number of immune cells; and the supernatant was then separated and applied to agar plates to count the remaining bacteria. Experiments were repeated as noted and data were combined.

PMN [5] = test: PMN respiratory burst in trauma patient plasma; format: cell-based, human; details: FIG. 9E
PMN [6] = test: NETosis of PMN incubated with trauma plasma, induced by PMA; format: cell-based, human; details: post-treatment 30 min after plasma, FIG. 9F
[7] = test system: Formyl Peptide Receptor-1 (FPR1); test: Flow cytometry for surface expression of FPR1 on human PMN; format: cell-based; details: FIG. 9G
Procedure: Finally, PMN were incubated with fluorescein (FITC)-conjugated anti-human FPR1 antibody (FAB3744F, LifeSpan BioSciences Inc., Seattle, WA), phycoerythrin (PE)-conjugated anti-human CXCR2 antibody (FAB331P, LifeSpan BioSciences Inc.), or PE-conjugated anti-human BLT1 antibody (FAB099P, LifeSpan BioSciences Inc.) in the dark for 30 min at room temperature. FITC-conjugated isotype antibody (400210, BioLegend, San Diego, CA) or PE-conjugated isotype antibody (400212, BioLegend) was used as a negative control. Allophycocyanin (APC)—conjugated anti-human CD16 antibody (360705, BioLegend) was used to confirm PMN identification.

[8] = cited from earlier work; for Drug-drug interactions: VAL with PAR, clinical settings; for Bioavailability: both by parenteral and enteral routes
HDAC6 = biological target: T1, HDAC6 (Homo sapiens, UniProt Q9UBN7); test: HDAC6 activation
T1 construct: endogenous in cells; host or cells: PMN
T1 sequence (Q9UBN7 1-1215): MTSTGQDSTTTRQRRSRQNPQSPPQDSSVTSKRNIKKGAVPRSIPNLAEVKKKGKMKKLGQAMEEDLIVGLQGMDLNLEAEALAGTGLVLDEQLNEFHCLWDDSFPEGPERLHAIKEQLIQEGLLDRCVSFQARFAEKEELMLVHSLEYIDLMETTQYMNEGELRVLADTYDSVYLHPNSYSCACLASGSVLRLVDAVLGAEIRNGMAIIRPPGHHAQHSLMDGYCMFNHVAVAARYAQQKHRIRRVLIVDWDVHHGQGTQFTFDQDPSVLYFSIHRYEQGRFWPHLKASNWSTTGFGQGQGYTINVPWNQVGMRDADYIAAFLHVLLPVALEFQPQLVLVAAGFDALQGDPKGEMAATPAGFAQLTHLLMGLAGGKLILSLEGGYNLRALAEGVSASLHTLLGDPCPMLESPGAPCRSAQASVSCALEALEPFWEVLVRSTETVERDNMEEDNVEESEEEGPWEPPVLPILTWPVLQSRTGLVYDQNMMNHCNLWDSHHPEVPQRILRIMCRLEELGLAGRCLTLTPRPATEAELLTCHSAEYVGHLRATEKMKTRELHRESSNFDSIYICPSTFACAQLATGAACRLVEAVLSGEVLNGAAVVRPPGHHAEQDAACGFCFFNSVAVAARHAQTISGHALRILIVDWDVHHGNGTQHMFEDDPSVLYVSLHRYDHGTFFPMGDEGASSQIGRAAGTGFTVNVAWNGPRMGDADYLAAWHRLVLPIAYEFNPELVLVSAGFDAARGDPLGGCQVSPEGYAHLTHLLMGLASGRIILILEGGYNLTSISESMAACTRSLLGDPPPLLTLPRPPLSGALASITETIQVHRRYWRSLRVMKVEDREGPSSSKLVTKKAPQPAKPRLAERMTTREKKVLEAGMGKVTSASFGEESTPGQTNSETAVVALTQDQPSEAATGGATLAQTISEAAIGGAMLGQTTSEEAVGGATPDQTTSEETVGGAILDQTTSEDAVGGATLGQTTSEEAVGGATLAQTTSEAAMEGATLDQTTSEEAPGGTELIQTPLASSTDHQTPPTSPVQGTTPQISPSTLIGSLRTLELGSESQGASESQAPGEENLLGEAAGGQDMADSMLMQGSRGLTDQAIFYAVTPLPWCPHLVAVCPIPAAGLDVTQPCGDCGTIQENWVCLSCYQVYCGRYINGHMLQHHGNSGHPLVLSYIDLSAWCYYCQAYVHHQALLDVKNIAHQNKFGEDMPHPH

[9] = inhibitor 30 min prior to mtDNA, N=6

Row | SMILES | Suppressive effect of mtDNA on PMN chemotaxis (PMN [1]; FIG. 1B, dependence on endosomal acidification) | mtDNA-induced suppression of PMN CTX to GRO-α (PMN [1]; [9]) | mtDNA-induced suppression of PMN CTX to LTB4 (PMN [1]; [9]) | Suppression of PMN CTX to LTB4 after ND6 exposure (PMN [1]; N=6) | Acetylated cortactin (ac-cortactin) level (cortactin) | Phagocytosis of SYTO9 labeled Staphylococcus aureus by human PMN suppressed by mtDNA (flow cytometry) (human PMN [2]) | PMN uptake of Sa in co-culture suppressed by mtDNA (PMN lysis/agar plate) (human PMN [3]) | Sa killing / clearance of Sa from co-culture media suppressed by mtDNA (human PMN [3]) | F-actin polymerization response to LTB4 inhibited by mtDNA (human PMN [4]) | Lung bacterial clearance (Sa CFU in BAL, % of uninjured controls) (Staphylococcus aureus; post-treatment i.p. 30 min post-injury, VPA 80 mg/kg, alone or combined) | Lung bacterial clearance (Sa CFU in BAL) (Staphylococcus aureus; pre-treatment i.p. 30 min prior to injury, Sa i.t. 4 h after trauma) | PMN respiratory burst (RB) suppressed by trauma plasma (PMN [5]; post-treatment) | PMN respiratory burst (RB) suppressed by trauma plasma (PMN [5]; pre-treatment) | NET formation (NETosis) suppressed by trauma plasma (PMN [6]) | FPR1 surface expression suppressed by ND6 [7] | Drug-drug interactions [8] | Bioavailability [8] | PMN CTX in the presence of mtDNA (PMN [1]) | Activation of HDAC6 (HDAC6) | T1/2 of elimination ([8]; human, in vivo)
1 | CCN(CC)CCCC(C)Nc1ccnc2cc(Cl)ccc12 (stereo not drawn) [CQ, chloroquine] | blocked |  |  |  |  |  |  |  |  |  |  |  |  |  |  |  |  |  |  | 
2 | COC(=O)c1ccc(C=Cc2ccc([N+](=O)[O-])o2)o1 [GRKi, methyl 5-[2-(5-nitro-2-furyl)vinyl]-2-furoate] |  | rescued | rescued |  |  |  |  |  |  |  |  |  |  |  |  |  |  |  |  | 
3 | Fc1ccc([C@@H]2CCNC[C@H]2COc2ccc3c(c2)OCO3)cc1 [PAR, paroxetine] |  |  | rescued | rescued | blocks mtDNA suppression of ac-cortactin | restored phagocytosis | restored phagocytosis | restored Sa killing | rescued | did not confer significant protection | significantly prevented infection | ineffective | can rescue RB | minor reversals | diminish FPR1 regulation by ND6 | no drug-drug interactions | excellent |  |  | 
4 | CCCC(CCC)C(=O)O [VPA, valproic acid] |  |  |  |  |  | reverse mtDNA-mediated suppressive effects on bacterial phagocytosis and killing | reverse mtDNA-mediated suppressive effects on bacterial phagocytosis and killing | reverse mtDNA-mediated suppressive effects on bacterial phagocytosis and killing | rescued |  |  | ineffective |  | minor reversals | diminish FPR1 regulation by ND6 | no drug-drug interactions | excellent | rescued | blocks activation of HDAC6 | 8 to 17 h
